Test results reported in patent publication US20220313698A1, “MODULATORS OF CYSTIC FIBROSIS TRANSMEMBRANE CONDUCTANCE REGULATOR” (Vertex Pharmaceuticals Incorporated, priority 2019, published 2022).
pEC50: −log10 of the molar value.

Molecular target: CFTR-mediated chloride transport (Homo sapiens, UniProt P13569)
Assay: Corrector Assay A - membrane potential dye assay (enteroid cells)
Conditions: for Corrector Assay A % activity: % of chloride transport of triple combination control (1 μM (14S)-dispiro macrocycle + 3 μM tezacaftor + 300 nM ivacaftor); for pEC50: read-out: Corrector Assay A EC50, human intestinal enteroid cells, 18-24 h incubation, acute 10 μM forskolin + 300 nM ivacaftor

Corrector Assay A % activity	pEC50	SMILES
++ (++ is 30-60%)	> 6.00	CC1(C)C[C@@H]2CC[C@H](c3cccc(C(F)(F)F)n3)Nc3cccc(n3)S(=O)(=O)NC(=O)c3ccc(-c4cccc(F)n4)nc3N1C2 [Compound 308, (14S,17R)-8-(6-fluoropyridin-2-yl)-12,12-dimethyl-17-[6-(trifluoromethyl)pyridin-2-yl]-2λ^6-thia-3,9,11,18,23-pentaazatetracyclo[17.3.1.111,14.05,10]tetracosa-1(22),5,7,9,19(23),20-hexaene-2,2,4-trione]
+++ (+++ is >60%)	> 6.00	CC1(C)C[C@@H]2CC[C@H](c3ccccn3)Nc3cccc(n3)S(=O)(=O)NC(=O)c3ccc(-c4cccc(OCCC5CC5)n4)nc3N1C2 [Compound 311]
++ (++ is 30-60%)	> 6.00	CC(C)(C)c1ccc2c(n1)N1C[C@@H](CCC(C(C)(C)C)Nc3cccc(n3)S(=O)(=O)NC2=O)CC1(C)C (single isomer, unassigned) [Compound 245]
+++ (+++ is >60%)	> 6.00	CC(C)(C)c1ccc2c(n1)N1C[C@@H](CCC(c3cc(C4CCNCC4)ccn3)Nc3cccc(n3)S(=O)(=O)NC2=O)CC1(C)C (stereo partly drawn) [Compound 123]
++ (++ is 30-60%)	> 6.00	CC(C)(C)c1ccnc([C@@H]2CC[C@@H]3CN(c4nc5ccccc5cc4C(=O)NS(=O)(=O)c4cccc(n4)N2)C(C)(C)C3)c1 (single isomer, unassigned) [Compound 10]
+++ (+++ is >60%)	> 6.00	CC(C)(C)OC(=O)NCc1ccnc(C2CC[C@@H]3CN(c4nc(C(C)(C)C)ccc4C(=O)NS(=O)(=O)c4cccc(n4)N2)C(C)(C)C3)c1 (single isomer, unassigned) [Compound 119]
++ (++ is 30-60%)	> 6.00	COC(=O)NCc1ccc(C2CC[C@@H]3CN(c4nc(C(C)(C)C)ccc4C(=O)NS(=O)(=O)c4cccc(n4)N2)C(C)(C)C3)nc1 (stereo partly drawn) [Compound 89, Methyl N-({6-[(14S)-8-tert-butyl-12,12-dimethyl-2,2,4-trioxo-2λ^6-thia-3,9,11,18,23-pentaazatetracyclo[17.3.1.111,14.05,10]tetracosa-1(23),5(10),6,8,19,21-hexaen-17-yl]pyridin-3-yl}methyl)carbamate]
+++ (+++ is >60%)	> 6.00	CC1(C)C[C@@H]2CC[C@H](c3ccccn3)Nc3cccc(n3)S(=O)(=O)NC(=O)c3ccc(C4CCCCC4)nc3N1C2 [Compound 328]
+++ (+++ is >60%)	> 6.00	CC(C)(C)c1cccc(C2CC[C@@H]3CN(c4nc(C(C)(C)C)ccc4C(=O)NS(=O)(=O)c4cccc(n4)N2)C(C)(C)C3)c1 (single isomer, unassigned) [Compound 41]
+++ (+++ is >60%)	> 6.00	CC1(C)CC=C(c2ccc3c(n2)N2C[C@@H](CC[C@H](c4ccccn4)Nc4cccc(n4)S(=O)(=O)NC3=O)CC2(C)C)CC1 [Compound 327]
+++ (+++ is >60%)	> 6.00	CC(C)(C)OC(=O)N1CCC2(CC1)CC(NC(=O)C1CC[C@@H]3CN(c4nc(C(C)(C)C)ccc4C(=O)NS(=O)(=O)c4cccc(n4)N1)C(C)(C)C3)C2 (single isomer, unassigned) [Compound 226]
+ (+ is <30%)	–	CC(C)CN1c2cccc(n2)S(=O)(=O)NC(=O)c2ccc(C(C)(C)C)nc2N2C[C@@H](CC[C@H]1c1ccccc1)CC2(C)C (single isomer, unassigned) [Compound 271]
+ (+ is <30%)	< 5.52	CC(C)(C)c1ccc2c(n1)N1C[C@@H](CC[C@@H](c3ncccc3Br)Nc3cccc(n3)S(=O)(=O)NC2=O)CC1(C)C (single isomer, unassigned) [Compound 54]

Second part, the molecule before the results:

SMILES	Corrector Assay A % activity	pEC50
C=CCC1CC[C@@H]2CN(c3nc(C(C)(C)C)ccc3C(=O)NS(=O)(=O)c3cccc(n3)N1)C(C)(C)C2 (single isomer, unassigned) [Compound 34]	+++ (+++ is >60%)	> 6.00
CCOc1cccc(-c2ccc3c(n2)N2C[C@@H](CC[C@H](c4ccccn4)Nc4cccc(n4)S(=O)(=O)NC3=O)CC2(C)C)n1 [Compound 316]	+++ (+++ is >60%)	> 6.00
CC(C)(C)COc1cccc(-c2ccc3c(n2)N2C[C@@H](CC[C@H](c4ccccn4)Nc4cccc(n4)S(=O)(=O)NC3=O)CC2(C)C)n1 [Compound 312]	+++ (+++ is >60%)	> 6.00
COc1ccn(-c2ccc3c(n2)N2C[C@@H](CC[C@H](c4ccccn4)Nc4cccc(n4)S(=O)(=O)NC3=O)CC2(C)C)n1 [Compound 335]	+++ (+++ is >60%)	> 6.00
CC(C)(C)C#Cc1ccc2c(n1)N1C[C@@H](CC[C@@H](c3ccccn3)Nc3cccc(n3)S(=O)(=O)NC2=O)CC1(C)C [Compound 176]	++ (++ is 30-60%)	> 6.00
CC(C)(C)c1ccc2c(n1)N1CC(CCCNc3cncc(n3)S(=O)(=O)NC2=O)CC1(C)C (single isomer, unassigned) [Compound 253, 8-tert-Butyl-12,12-dimethyl-2λ^6-thia-3,9,11,18,21,23-hexaazatetracyclo[17.3.1.111,14.05,10]tetracosa-1(22),5,7,9,19(23),20-hexaene-2,2,4-trione]	+ (+ is <30%)	< 5.52
CC(C)(C)c1ccnc(C2CC[C@@H]3CN(c4nc(C(C)(C)C)ccc4C(=O)NS(=O)(=O)c4cccc(n4)N2)C(C)(C)C3)c1 (single isomer, unassigned) [Compound 76]	++ (++ is 30-60%)	> 6.00
CC1(C)C[C@@H]2CC[C@H](c3ccccn3)Nc3cccc(n3)S(=O)(=O)NC(=O)c3ccc(C4=CCCCC4)nc3N1C2 [Compound 329]	+++ (+++ is >60%)	> 6.00
CC(C)=Cc1ccc(C2CC[C@@H]3CN(c4nc(C(C)(C)C)ccc4C(=O)NS(=O)(=O)c4cccc(n4)N2)C(C)(C)C3)nc1 (stereo partly drawn) [Compound 183, (14S)-8-tert-Butyl-12,12-dimethyl-17-[5-(2-methylprop-1-en-1-yl)pyridin-2-yl]-2λ^6-thia-3,9,11,18,23-pentaazatetracyclo[17.3.1.111,14.05,10]tetracosa-1(23),5(10),6,8,19,21-hexaene-2,2,4-trione]	++ (++ is 30-60%)	> 6.00
CC(C)(C)c1ccc2c(n1)N1C[C@@H](CCC(c3cc(CCCN)ccn3)Nc3cccc(n3)S(=O)(=O)NC2=O)CC1(C)C (single isomer, unassigned) [Compound 109]	+++ (+++ is >60%)	> 6.00
CC1(C)C[C@@H]2CC[C@H](c3ccccn3)Nc3cccc(n3)S(=O)(=O)NC(=O)c3ccc(C4CCC4)nc3N1C2 [Compound 330, (14S,17R)-8-cyclobutyl-12,12-dimethyl-17-(pyridin-2-yl)-2λ^6-thia-3,9,11,18,23-pentaazatetracyclo[17.3.1.111,14.05,10]tetracosa-1(22),5,7,9,19(23),20-hexaene-2,2,4-trione]	+++ (+++ is >60%)	> 6.00
CC(C)CC#Cc1ccc2c(n1)N1C[C@@H](CC[C@H](c3ccccn3)Nc3cccc(n3)S(=O)(=O)NC2=O)CC1(C)C [Compound 157, (14S,17R)-12,12-dimethyl-8-(4-methylpent-1-yn-1-yl)-17-(pyridin-2-yl)-2λ^6-thia-3,9,11,18,23-pentaazatetracyclo[17.3.1.111,14.05,10]tetracosa-1(22),5,7,9,19(23),20-hexaene-2,2,4-trione]	+++ (+++ is >60%)	> 6.00
CC(C)(C)c1ccc2c(n1)N1C[C@@H](CC[C@@H](c3cc(-c4cc[nH]n4)ccn3)Nc3cccc(n3)S(=O)(=O)NC2=O)CC1(C)C (single isomer, unassigned) [Compound 74]	++ (++ is 30-60%)	> 6.00
C=CCC1CC[C@@H]2CN(c3nc(C(C)(C)C)ccc3C(=O)NS(=O)(=O)c3cccc(n3)N1)C(C)(C)C2 (single isomer, unassigned) [Compound 35]	++ (++ is 30-60%)	> 6.00
CC(C)(C)OC(=O)N1CCC(c2ccnc(C3CC[C@@H]4CN(c5nc(C(C)(C)C)ccc5C(=O)NS(=O)(=O)c5cccc(n5)N3)C(C)(C)C4)c2)CC1 (stereo partly drawn) [Compound 118, tert-butyl 4-{2-[(14S)-8-tert-butyl-12,12-dimethyl-2,2,4-trioxo-2λ^6-thia-3,9,11,18,23-pentaazatetracyclo[17.3.1.111,14.05,10]tetracosa-1(23),5(10),6,8,19,21-hexaen-17-yl]pyridin-4-yl}piperidine-1-carboxylate]	++ (++ is 30-60%)	> 6.00
CC(C)(C)c1ccc2c(n1)N1C[C@@H](CC[C@@H](c3cc(C4=CCOCC4)ccn3)Nc3cccc(n3)S(=O)(=O)NC2=O)CC1(C)C (single isomer, unassigned) [Compound 125]	+++ (+++ is >60%)	> 6.00
CC(C)(C)CCOc1ccn(-c2ccc3c(n2)N2C[C@@H](CC[C@H](c4cc(C(C)(C)C)ccn4)Nc4cccc(n4)S(=O)(=O)NC3=O)CC2(C)C)n1 [Compound 305, (14S,17R)-17-(4-tert-butylpyridin-2-yl)-8-[3-(3,3-dimethylbutoxy)-1H-pyrazol-1-yl]-12,12-dimethyl-2λ^6-thia-3,9,11,18,23-pentaazatetracyclo[17.3.1.111,14.05,10]tetracosa-1(22),5,7,9,19(23),20-hexaene-2,2,4-trione]	+++ (+++ is >60%)	> 6.00
CCOc1cccc(-c2ccc3c(n2)N2C[C@@H](CC[C@@H](c4ccccn4)Nc4cccc(n4)S(=O)(=O)NC3=O)CC2(C)C)n1 [Compound 317]	++ (++ is 30-60%)	> 6.00
CC(C)(C)c1ccc2c(n1)N1C[C@@H](CCC(c3cc(C4COC4)ccn3)Nc3cccc(n3)S(=O)(=O)NC2=O)CC1(C)C (single isomer, unassigned) [Compound 26]	+++ (+++ is >60%)	> 6.00
